A short description of the test: HBSAg ELISA assay: HepG2-Clone42 cells were seeded in into black clear-bottom 96-well plates at a concentration of 6.0×10^4 cells/well. 24 hours post-seeding, the cells were treated with 200 μl/well of media containing five-fold serial dilutions of compounds in DMSO. DMSO alone was used as the no drug control. The final DMSO concentration in all wells was 0.5%. The HBsAg ELISA kit (Alpha Diagnostic International, San Antonio, Tex., USE, Catalog #4110) was used to determine the level (semi-quantitative) of secreted HBV sAg. Background: In an ELISA, binding on a coated surface is turned into a signal by an enzyme label.

Molecules are shown by their SMILES.

What is called EC50 is the concentration at which the effect is half-maximal. The low end stands for greater potency, the high end for weaker potency. For `COCCCOc1cc2c(cc1OC)-c1c(F)c(=O)c(C(=O)O)cn1C1[C@@H]2OCC1(C)C` (stereo partly drawn), the midpoint of the response, the EC50, lay at 0.8 nM. With `COCCCOc1cc2c(cc1Cl)-c1cc(=O)c(C(=O)O)cn1[C@H]1[C@@H]2CCC1(C)C` the figure was 0.1 nM; with `COCCCOc1cc2c(cc1OC)-c1cc(=O)c(C(=O)O)cn1C1[C@@H]2COC1(C)C` (stereo partly drawn), 1 nM.
